Test results reported in patent US12568961B2, “Multi-layer true spherical chitosan encapsulation of absolute (essential) oils for use in pesticidal activity” (GroPro Corporation, priority 2023, dated 2026).
Marks after values point to notes of the source that are not given here.

Experiments:
[1] = tested on: root-knot nematodes (Meloidogyne spp.); test: nematocidal activity on hatched root-knot nematodes in Petri dish; details: 15 nematodes
Description: The tomato roots infected with root-knot nematodes were washed with running water and were then cut to a size of about 1 cm, after which 50 g of the cut roots were placed in a 500 ml round-bottom flask containing 200 ml of 0.5% sodium hypochloride (NaOCl), stopped with a rubber stopper, and shaken vigorously for 3 min to sterilize the roots and at the same time burst the egg bag. Thereafter, the solution was passed through a sieve in which 200 mesh was superimposed on 500 mesh, and washed with distilled water, so the eggs of the root-knot nematodes from which the NaOCl solution was removed were recovered.
Next, the eggs of the root-knot nematodes thus recovered were surface-sterilized with 0.5% NaOCl for 10 min, washed thoroughly with sterile distilled water, placed in a phosphate buffer (1%) containing sterilized normal saline, and hatched in an incubator at 25° C.
Thereafter, each mixed solution was diluted to 2000 ppm, 2 to 3 ml thereof was poured into a Petri dish, after which 15 hatched root-knot nematodes were placed in the Petri dish, and nematocidal activity was measured and the results thereof are shown in Table 1 below.
The number of root-knot nematodes used for the experiment on the number of killed root-knot nematodes was 15 at each dilution factor.

[2] = tested on: Ae. aegypti, Culex species mosquitoes, Anopheles species mosquitoes; test: mosquitos and midge adult activity; assay type: in vivo; details: used at 500 to 8,000 ppm
[3] = cited from earlier work
[4] = tested on: tomato seedlings; test: phytotoxicity of geraniol, drenching treatment of potted tomato seedlings; assay type: in vivo; details: 1 week after treatment; for Extent of phytotoxicity (0-5) / Phytotoxicity symptom: 50 ml drench, tomato
From the text: Sterilized soil was uniformly mixed, 300 g thereof was then placed in each pot, and tomato seedlings not infected with root-knot nematodes were transplanted thereto.

[5] = tested on: root-knot nematodes (Meloidogyne spp.); test: nematocidal activity assessment of plant-derived materials in development; details: geraniol used at 500 to 4,000 ppm
[6] = tested on: multiple insects; test: insecticidal activity on multiple insects (oxymatrine); assay type: in vivo; details: used at 500 to 6,000 ppm
[7] = tested on: Black Sigatoka; test: field trials against black Sigatoka in bananas; details: applied as tank mixes with tea tree oil
Description: Tea tree oil was used in disclosed experiments and trials as an 54 mulsifiable concentrated formulation. For field trials in bananas, tea tree oil was applied similarly to conventional synthetic fungicides, with mineral oil, surfactants, and/or just water. The following fungicides, registered for use against black sigatoka in bananas, were tested for comparison: azoxystrobin (Bankit 25 SC), trifloxystrobin (Flint, Tega 50 WG), difenoconazole (Score, Sico 25 EC), mancozeb (43 SC Duwest 80 WP), flutriafol (Impact, 125 SC) and tridemorph (Calixin 86 OL).

**Q.** For `C/C=C(\C)C(=O)O[C@H]1C[C@@H](OC(C)=O)[C@@]2(C(=O)OC)CO[C@H]3[C@@H](O)[C@@](C)([C@]45O[C@@]4(C)[C@H]4C[C@@H]5O[C@@H]5OC=C[C@@]54O)[C@H]4[C@]1(CO[C@]4(O)C(=O)OC)[C@@H]32` [Azadirachtin, azadirachtin], which “number of killed root-knot nematodes” value ([1]; 2000 ppm, 1 day) is on record?
**A.** 7

**Q.** And the “number of killed root-knot nematodes” value ([1]; 2000 ppm, 2 days)?
**A.** 8

**Q.** What about the “number of killed root-knot nematodes” value ([1]; 2000 ppm, 3 days) of the same molecule?
**A.** 10

**Q.** What does the source list for `CC(C)=CCC/C(C)=C/CO` [Geraniol, 3,7-dimethyl-2,6-octadien-1-ol]?
**A.** mosquito and midge control [2]: superior mosquito and midge control was demonstrated without plant phytotoxicity or water toxicology; solubility in water [3]: insoluble in water; number of killed root-knot nematodes ([1]; 2000 ppm, 1 day): 15^a; number of killed root-knot nematodes ([1]; geraniol 2,000 ppm, 1 day): 15; concentrations causing phytotoxicity in tomato seedlings ([4]; drench): ≥ 4,000 ppm; concentrations with no effect on tomato seedlings ([4]; drench): ≤ 3,000 ppm; Extent of phytotoxicity (0-5) ([4]; geraniol 100 ppm): 0; Phytotoxicity symptom ([4]; geraniol 100 ppm): No; Extent of phytotoxicity (0-5) ([4]; geraniol 200 ppm): 0; Phytotoxicity symptom ([4]; geraniol 200 ppm): No; Extent of phytotoxicity (0-5) ([4]; geraniol 330 ppm): 0; Phytotoxicity symptom ([4]; geraniol 330 ppm): No; Extent of phytotoxicity (0-5) ([4]; geraniol 500 ppm): 0; Phytotoxicity symptom ([4]; geraniol 500 ppm): No; Extent of phytotoxicity (0-5) ([4]; geraniol 1,000 ppm): 0; Phytotoxicity symptom ([4]; geraniol 1,000 ppm): No; Extent of phytotoxicity (0-5) ([4]; geraniol 2,000 ppm): 0; Phytotoxicity symptom ([4]; geraniol 2,000 ppm): No; Extent of phytotoxicity (0-5) ([4]; geraniol 3,000 ppm): 0; Phytotoxicity symptom ([4]; geraniol 3,000 ppm): No; Extent of phytotoxicity (0-5) ([4]; geraniol 4,000 ppm): 5; Phytotoxicity symptom ([4]; geraniol 4,000 ppm): Withered; Extent of phytotoxicity (0-5) ([4]; geraniol 5,000 ppm): 5; Phytotoxicity symptom ([4]; geraniol 5,000 ppm): Withered; Extent of phytotoxicity (0-5) ([4]; geraniol 10,000 ppm): 5; Phytotoxicity symptom ([4]; geraniol 10,000 ppm): Withered; Extent of phytotoxicity (0-5) ([4]; geraniol 20,000 ppm): 5; Phytotoxicity symptom ([4]; geraniol 20,000 ppm): Withered; nematocidal control [5]: superior nematocidal control was demonstrated without plant phytotoxicity

**Q.** For `O=C1CCC[C@@H]2[C@H]3CCC[N+]4([O-])CCC[C@@H](CN12)[C@@H]34` (some centres unmarked) [Oxymatrine, oxymatrine], which insecticidal control [6] is on record?
**A.** superior insecticidal control was demonstrated without plant phytotoxicity

**Q.** With `CC1COC(Cn2cncn2)(c2ccc(Oc3ccc(Cl)cc3)cc2Cl)O1` (centres unmarked) [difenoconazole] as the molecule, how does the “control of Black Sigatoka” value [7] read?
**A.** effectively controlled

**Q.** For `CON=C(C(=O)OC)c1ccccc1CON=C(C)c1cccc(C(F)(F)F)c1` [trifloxystrobin], which “control of Black Sigatoka” value [7] is on record?
**A.** effectively controlled

**Q.** For pyrethrin, which “number of killed root-knot nematodes” value ([1]; 2000 ppm, 1 day) is on record?
**A.** 5

**Q.** What about the “number of killed root-knot nematodes” value ([1]; 2000 ppm, 2 days) of the same molecule?
**A.** 6

**Q.** And the “number of killed root-knot nematodes” value ([1]; 2000 ppm, 3 days)?
**A.** 11
